Test results as given in patent US20260242419A1, “A CYCLIC PEPTIDE FOR TRAPPING INTERLEUKIN-1 BETA” (Merck Sharp & Dohme LLC, priority 2023, published 2026).
Starred links: 1 amine or outer side, 2 acyl side, 3 side chain; linkers in the order of their positions; H or OH if unused. Non-standard residues stand in square brackets, D forms with d. Residues, ends and D or L forms follow the SMILES beside them. dPro(4R-(4-pyridylmethyl)) = O=C(O)[C@H]1C[C@@H](Cc2ccncc2)CN1; Ala(piperidin-4-yl) = O=C([C@H](CC1CCN([*:3])CC1)N[*:1])[*:2]; Trp(βS-Me,4-F) = C[C@@H](c1c[nH]c2cccc(F)c12)[C@H](N)C(=O)O; Bip(4'-COOH) = N[C@@H](Cc1ccc(-c2ccc(C(=O)O)cc2)cc1)C(=O)O; dPro(4R-Bzl(4-F)) = O=C(O)[C@H]1C[C@@H](Cc2ccc(F)cc2)CN1; dPro(3S-(4-F-Bn)) = O=C(O)[C@@H]1NCC[C@@H]1Cc1ccc(F)cc1; Ala(morpholin-4-yl) = N[C@@H](CN1CCOCC1)C(=O)O; Ala(pyrimidin-5-yl) = N[C@@H](Cc1cncnc1)C(=O)O; Phe(4-COOH) = N[C@@H](Cc1ccc(C(=O)O)cc1)C(=O)O; Phe(4-tBu) = CC(C)(C)c1ccc(C[C@H](N)C(=O)O)cc1; Ala(2-pyrazinyl) = N[C@@H](Cc1cnccn1)C(=O)O; X34 = C[N+](C)(C)CC[C@H](N[*:1])C(=O)[*:2]; Phe(3-Cl) = N[C@@H](Cc1cccc(Cl)c1)C(=O)O; Pro(cis-4-F) = O=C(O)[C@@H]1C[C@H](F)CN1; X45 = Cc1cc(C[C@H](N[*:1])C(=O)[*:2])no1; Ala(4-THP) = N[C@@H](CC1CCOCC1)C(=O)O; X38 = O=C([C@H](Cc1ncco1)N[*:1])[*:2]; X6 = O=C([C@H](Cc1ccncn1)N[*:1])[*:2]; AEF = NCCOc1ccc(C[C@H](N)C(=O)O)cc1; d(αMeD) = C[C@@](N)(CC(=O)O)C(=O)O; h4Pal = N[C@@H](CCc1ccncc1)C(=O)O; 4Pal = N[C@@H](Cc1ccncc1)C(=O)O; Dab = NCC[C@H](N)C(=O)O; Aib = CC(C)(N)C(=O)O

Biological target: T1, IL-1β (Homo sapiens, UniProt P01584)
T1 construct: purchased BioLegend 579404
Test: IL-6 assay in MRC5 cells: inhibition of IL-1β induced IL-6 secretion (AlphaLISA)
Format: cell-based
Settings: inhibition of IL-1β induced IL-6 secretion in MRC5 cells; read-out: MRC5 IC50
Method in brief: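 Compound was pre-incubated 1 h at ambient temperature with recombinant human IL-1β at 2λ EC80 before adding human lung fibroblast MRC5 cells (3000/well) in EMEM with 0.025% BSA. After overnight culture at 37 °C, 5% CO2, secreted IL-6 in conditioned medium was measured by AlphaLISA; IC50 from 4-parameter logistic fits.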

T1 sequence (P01584 117-269): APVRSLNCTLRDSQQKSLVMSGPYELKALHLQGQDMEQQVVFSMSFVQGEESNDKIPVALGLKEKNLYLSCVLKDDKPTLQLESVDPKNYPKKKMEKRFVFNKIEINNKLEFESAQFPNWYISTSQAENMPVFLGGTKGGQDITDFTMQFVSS

SMILES	IC50 [nM]
CC(=O)NCCOc1ccc(C[C@@H]2NC(=O)[C@H]3C[C@@H](Cc4ccncc4)CN3C(=O)CNC(=O)[C@H](CCN)NC(=O)[C@H](CCC(N)=O)NC(=O)[C@H](Cc3cccc(Cl)c3)NC(=O)C(C)(C)NC(=O)[C@H](Cc3c[nH]c4ccccc34)NC(=O)[C@H](CCC(=O)O)NC(=O)C(C)(C)NC(=O)[C@H]([C@@H](C)c3c[nH]c4cccc(F)c34)NC(=O)[C@@H]3C[C@H](F)CN3C(=O)CNC(=O)[C@H](Cc3ccc(C(=O)O)cc3)NC(=O)[C@H](Cc3ccncc3)NC2=O)cc1 [Example 309] (cyclo([AEF](Ac)[4Pal][Phe(4-COOH)]G[Pro(cis-4-F)][Trp(βS-Me,4-F)][Aib]EW[Aib][Phe(3-Cl)]Q[Dab]G[dPro(4R-(4-pyridylmethyl))]))	0.018
CC(=O)NCCOc1ccc(C[C@@H]2NC(=O)[C@H]3C[C@@H](Cc4ccncc4)CN3C(=O)CNC(=O)[C@H](CCN)NC(=O)[C@H](CCC(N)=O)NC(=O)[C@H](Cc3ccc(O)cc3)NC(=O)C(C)(C)NC(=O)[C@H](Cc3c[nH]c4ccccc34)NC(=O)[C@H](CCC(=O)O)NC(=O)C(C)(C)NC(=O)[C@H]([C@@H](C)c3c[nH]c4cccc(F)c34)NC(=O)[C@@H]3C[C@H](F)CN3C(=O)CNC(=O)[C@H](Cc3ccc(C(=O)O)cc3)NC(=O)[C@H](Cc3ccncc3)NC2=O)cc1 [Example 310] (cyclo([AEF](Ac)[4Pal][Phe(4-COOH)]G[Pro(cis-4-F)][Trp(βS-Me,4-F)][Aib]EW[Aib]YQ[Dab]G[dPro(4R-(4-pyridylmethyl))]))	0.017
C[C@@H](c1c[nH]c2cccc(F)c12)[C@@H]1NC(=O)[C@@H]2C[C@H](F)CN2C(=O)CNC(=O)[C@H](Cc2ccc(C(=O)O)cc2)NC(=O)[C@H](Cc2ccncc2)NC(=O)[C@H](Cc2ccc(C(C)(C)C)cc2)NC(=O)[C@H]2C[C@@H](Cc3ccncc3)CN2C(=O)CNC(=O)[C@H](CCN)NC(=O)[C@H](CCC(N)=O)NC(=O)[C@H](Cc2cncnc2)NC(=O)C(C)(C)NC(=O)[C@H](Cc2c[nH]c3ccccc23)NC(=O)[C@H](CCC(=O)O)NC(=O)C(C)(C)NC1=O [Example 311] (cyclo([Phe(4-tBu)][4Pal][Phe(4-COOH)]G[Pro(cis-4-F)][Trp(βS-Me,4-F)][Aib]EW[Aib][Ala(pyrimidin-5-yl)]Q[Dab]G[dPro(4R-(4-pyridylmethyl))]))	0.017
C[C@@H](c1c[nH]c2cccc(F)c12)[C@@H]1NC(=O)[C@@H]2C[C@H](F)CN2C(=O)CNC(=O)[C@H](Cc2ccc(C(=O)O)cc2)NC(=O)[C@H](Cc2ccncc2)NC(=O)[C@H](Cc2ccc(-c3ccc(C(=O)O)cc3)cc2)NC(=O)[C@H]2[C@@H](Cc3ccc(F)cc3)CCN2C(=O)CNC(=O)[C@H](CCN)NC(=O)[C@H](CCC(N)=O)NC(=O)[C@H](Cc2ccncn2)NC(=O)C(C)(C)NC(=O)[C@H](Cc2c[nH]c3ccccc23)NC(=O)[C@H](CCC(=O)O)NC(=O)C(C)(C)NC1=O [Example 312] (cyclo([Bip(4'-COOH)][4Pal][Phe(4-COOH)]G[Pro(cis-4-F)][Trp(βS-Me,4-F)][Aib]EW[Aib][X6]Q[Dab]G[dPro(3S-(4-F-Bn))]))	0.017
C[C@@H](c1c[nH]c2cccc(F)c12)[C@@H]1NC(=O)[C@@H]2C[C@H](F)CN2C(=O)CNC(=O)[C@H](Cc2ccc(C(=O)O)cc2)NC(=O)[C@H](Cc2ccncc2)NC(=O)[C@H](Cc2ccc(-c3ccc(C(=O)O)cc3)cc2)NC(=O)[C@H]2C[C@@H](Cc3ccc(F)cc3)CN2C(=O)CNC(=O)[C@H](CCN)NC(=O)[C@H](CCC(N)=O)NC(=O)[C@H](CC2CCOCC2)NC(=O)[C@@](C)(CC(=O)O)NC(=O)[C@H](Cc2c[nH]c3ccccc23)NC(=O)[C@H](CO)NC(=O)C(C)(C)NC1=O [Example 313] (cyclo([Bip(4'-COOH)][4Pal][Phe(4-COOH)]G[Pro(cis-4-F)][Trp(βS-Me,4-F)][Aib]SW[d(αMeD)][Ala(4-THP)]Q[Dab]G[dPro(4R-Bzl(4-F))]))	0.015
C[C@@H](c1c[nH]c2cccc(F)c12)[C@@H]1NC(=O)[C@@H]2C[C@H](F)CN2C(=O)CNC(=O)[C@H](Cc2ccc(C(=O)O)cc2)NC(=O)[C@H](Cc2ccncc2)NC(=O)[C@H](Cc2ccc(-c3ccc(C(=O)O)cc3)cc2)NC(=O)[C@H]2C[C@@H](Cc3ccc(F)cc3)CN2C(=O)CNC(=O)[C@H](CCN)NC(=O)[C@H](CCC(N)=O)NC(=O)[C@H](CC[N+](C)(C)C)NC(=O)C(C)(C)NC(=O)[C@H](Cc2c[nH]c3ccccc23)NC(=O)[C@H](CO)NC(=O)C(C)(C)NC1=O [Example 314] (cyclo([Bip(4'-COOH)][4Pal][Phe(4-COOH)]G[Pro(cis-4-F)][Trp(βS-Me,4-F)][Aib]SW[Aib][X34]Q[Dab]G[dPro(4R-Bzl(4-F))]))	0.02
CC(=O)NCCOc1ccc(C[C@@H]2NC(=O)[C@H]3C[C@@H](Cc4ccncc4)CN3C(=O)CNC(=O)[C@H](CCN)NC(=O)[C@H](CCC(N)=O)NC(=O)[C@H](Cc3cc(C)on3)NC(=O)C(C)(C)NC(=O)[C@H](Cc3c[nH]c4ccccc34)NC(=O)[C@H](CCC(=O)O)NC(=O)C(C)(C)NC(=O)[C@H]([C@@H](C)c3c[nH]c4cccc(F)c34)NC(=O)[C@@H]3C[C@H](F)CN3C(=O)CNC(=O)[C@H](Cc3ccc(C(=O)O)cc3)NC(=O)[C@H](Cc3ccncc3)NC2=O)cc1 [Example 315] (cyclo([AEF](Ac)[4Pal][Phe(4-COOH)]G[Pro(cis-4-F)][Trp(βS-Me,4-F)][Aib]EW[Aib][X45]Q[Dab]G[dPro(4R-(4-pyridylmethyl))]))	0.018
CC(=O)NCCOc1ccc(C[C@@H]2NC(=O)[C@H]3C[C@@H](Cc4ccncc4)CN3C(=O)CNC(=O)[C@H](CCN)NC(=O)[C@H](CCC(N)=O)NC(=O)[C@H](Cc3ncco3)NC(=O)C(C)(C)NC(=O)[C@H](Cc3c[nH]c4ccccc34)NC(=O)[C@H](CCC(=O)O)NC(=O)C(C)(C)NC(=O)[C@H]([C@@H](C)c3c[nH]c4cccc(F)c34)NC(=O)[C@@H]3C[C@H](F)CN3C(=O)CNC(=O)[C@H](Cc3ccc(C(=O)O)cc3)NC(=O)[C@H](Cc3ccncc3)NC2=O)cc1 [Example 316] (cyclo([AEF](Ac)[4Pal][Phe(4-COOH)]G[Pro(cis-4-F)][Trp(βS-Me,4-F)][Aib]EW[Aib][X38]Q[Dab]G[dPro(4R-(4-pyridylmethyl))]))	0.02
CC(=O)NCCOc1ccc(C[C@@H]2NC(=O)[C@H]3C[C@@H](Cc4ccncc4)CN3C(=O)CNC(=O)[C@H](CCN)NC(=O)[C@H](CCC(N)=O)NC(=O)[C@H](Cc3c[nH]cn3)NC(=O)C(C)(C)NC(=O)[C@H](Cc3c[nH]c4ccccc34)NC(=O)[C@H](CCC(=O)O)NC(=O)C(C)(C)NC(=O)[C@H]([C@@H](C)c3c[nH]c4cccc(F)c34)NC(=O)[C@@H]3C[C@H](F)CN3C(=O)CNC(=O)[C@H](Cc3ccc(C(=O)O)cc3)NC(=O)[C@H](Cc3ccncc3)NC2=O)cc1 [Example 317] (cyclo([AEF](Ac)[4Pal][Phe(4-COOH)]G[Pro(cis-4-F)][Trp(βS-Me,4-F)][Aib]EW[Aib]HQ[Dab]G[dPro(4R-(4-pyridylmethyl))]))	0.015
CC(=O)NCCOc1ccc(C[C@@H]2NC(=O)[C@H]3C[C@@H](Cc4ccncc4)CN3C(=O)CNC(=O)[C@H](CCN)NC(=O)[C@H](CCC(N)=O)NC(=O)[C@H](CCc3ccncc3)NC(=O)C(C)(C)NC(=O)[C@H](Cc3c[nH]c4ccccc34)NC(=O)[C@H](CCC(=O)O)NC(=O)C(C)(C)NC(=O)[C@H]([C@@H](C)c3c[nH]c4cccc(F)c34)NC(=O)[C@@H]3C[C@H](F)CN3C(=O)CNC(=O)[C@H](Cc3ccc(C(=O)O)cc3)NC(=O)[C@H](Cc3ccncc3)NC2=O)cc1 [Example 318] (cyclo([AEF](Ac)[4Pal][Phe(4-COOH)]G[Pro(cis-4-F)][Trp(βS-Me,4-F)][Aib]EW[Aib][h4Pal]Q[Dab]G[dPro(4R-(4-pyridylmethyl))]))	0.025
C[C@@H](c1c[nH]c2cccc(F)c12)[C@@H]1NC(=O)[C@@H]2C[C@H](F)CN2C(=O)CNC(=O)[C@H](Cc2ccc(C(=O)O)cc2)NC(=O)[C@H](Cc2ccncc2)NC(=O)[C@H](Cc2ccc(-c3ccc(C(=O)O)cc3)cc2)NC(=O)[C@H]2C[C@@H](Cc3ccc(F)cc3)CN2C(=O)CNC(=O)[C@H](CCN)NC(=O)[C@H](CCC(N)=O)NC(=O)[C@H](CN2CCOCC2)NC(=O)[C@@](C)(CC(=O)O)NC(=O)[C@H](Cc2c[nH]c3ccccc23)NC(=O)[C@H](CO)NC(=O)C(C)(C)NC1=O [Example 319] (cyclo([Bip(4'-COOH)][4Pal][Phe(4-COOH)]G[Pro(cis-4-F)][Trp(βS-Me,4-F)][Aib]SW[d(αMeD)][Ala(morpholin-4-yl)]Q[Dab]G[dPro(4R-Bzl(4-F))]))	0.017
C[C@@H](c1c[nH]c2cccc(F)c12)[C@@H]1NC(=O)[C@@H]2C[C@H](F)CN2C(=O)CNC(=O)[C@H](Cc2ccc(C(=O)O)cc2)NC(=O)[C@H](Cc2ccncc2)NC(=O)[C@H](Cc2ccc(-c3ccc(C(=O)O)cc3)cc2)NC(=O)[C@H]2C[C@@H](Cc3ccc(F)cc3)CN2C(=O)CNC(=O)[C@H](CCN)NC(=O)[C@H](CCC(N)=O)NC(=O)[C@H](CC2CCNCC2)NC(=O)[C@@](C)(CC(=O)O)NC(=O)[C@H](Cc2c[nH]c3ccccc23)NC(=O)[C@H](CO)NC(=O)C(C)(C)NC1=O [Example 320] (cyclo([Bip(4'-COOH)][4Pal][Phe(4-COOH)]G[Pro(cis-4-F)][Trp(βS-Me,4-F)][Aib]SW[d(αMeD)][Ala(piperidin-4-yl)]Q[Dab]G[dPro(4R-Bzl(4-F))]))	0.015
C[C@@H](c1c[nH]c2cccc(F)c12)[C@@H]1NC(=O)[C@@H]2C[C@H](F)CN2C(=O)CNC(=O)[C@H](Cc2ccc(C(=O)O)cc2)NC(=O)[C@H](Cc2ccncc2)NC(=O)[C@H](Cc2ccc(-c3ccc(C(=O)O)cc3)cc2)NC(=O)[C@H]2C[C@@H](Cc3ccc(F)cc3)CN2C(=O)CNC(=O)[C@H](CCN)NC(=O)[C@H](CCC(N)=O)NC(=O)[C@H](Cc2cnccn2)NC(=O)[C@@](C)(CC(=O)O)NC(=O)[C@H](Cc2c[nH]c3ccccc23)NC(=O)[C@H](CO)NC(=O)C(C)(C)NC1=O [Example 321] (cyclo([Bip(4'-COOH)][4Pal][Phe(4-COOH)]G[Pro(cis-4-F)][Trp(βS-Me,4-F)][Aib]SW[d(αMeD)][Ala(2-pyrazinyl)]Q[Dab]G[dPro(4R-Bzl(4-F))]))	0.015
